SMILES strings stand for the structures.

For series [1], the system named is Phospho AKT. The series is described as follows: Western blot, PI3K/AKT/mTOR pathway inhibition: phospho AKT. Format: cell-based. As to conditions: 1 hour treatment; signals quantified using β-actine. The source says: (§1) Western blot technique was used, using an Odissey Licor equipment to identify the proteins. Phospho AKT, AKT and Phospho GSK3β antibodies were used as first antibodies and anti-mouse 680nm as second antibody. Then, the signals were quantified using β-actine.
(In general: Immunoblotting shows a protein as a band on a membrane.)

Series [2] relates to AKT. Kind of series: Western blot, PI3K/AKT/mTOR pathway inhibition: total AKT. As to conditions: 60 min treatment; signals quantified using β-actine. It counts as cell-based.
From the text: as §1

In series [3] the test system is Phospho GSK3β. The series is described as follows: Western blot, PI3K/AKT/mTOR pathway inhibition: phospho GSK3β. It counts as cell-based. The following applies: 1 hour treatment; signals quantified using β-actine.
From the text: as §1

Series [4] concerns mice. The following applies: mouse, ip, 50 mg/kg. How it is done:
In order to evaluate the in vivo toxicity, mice were intraperitoneal injected with MDN-0088 at 50 mg/kg.

The subject of series [5] is MCF-7 cell line. The series is described as follows: Cell cycle analysis by flow cytometry (propidium iodide DNA staining). It counts as cell-based. As to conditions: for percentage of cells in each cell cycle phase: G0/G1 / percentage of cells in each cell cycle phase: G2/M / percentage of cells in each cell cycle phase: S: 72 hours of incubation. How it is done:
For the evaluation of the MDN-0088 activity, the MCF-7 cell line was used. The method used was flow cytometry to determine the effect of MDN-0088 on cell cycle. This method of DNA staining utilizes ethanol to fix the cells and permeabilize the membrane, which allows the dye (Propidium Iodide) to enter the cells.
For this purpose, cells were seeded in 6-well plates at 200,000 cells/well. After 24 hours, cells were serum-deprived for 72 hours. Medium was removed and compounds/standards were added in fresh medium at a different concentration (4µL of compound/2mL fresh medium). DMSO concentration was 0.2% in all wells. After 72 hours of incubation (37 °C, 5% CO2), cells were scrapped and centrifuged (1200rpm for 5 min) and washed twice with PBS. 330 µL of cell suspension was placed in a Facs tube and 660 µL ice cold 100% ethanol was added drop-wise to the tube walls. Tubes were mixed by vortexing slowly during addition of ethanol. They were left at […] overnight.
Tubes were centrifuged (1200 rpm for 5 min) to remove ethanol, 4 mL PBS was added and they were washed at 1200 rpm for 5 min. The supernatant was removed and cells were resuspended in DNA staining solution (500 µL PBS/IP 20µg/mL/Rnase 0.2 mg/ml). Data was acquired on a flow cytometer (Accury, BD).
As shown in Table 3 and Figure 1, an increase in G0/G1 and a decrease both in S and G2/M phase were observed. […]

In turn, `O=c1cc(N2CCOCC2)oc2c(-c3ccccc3)cccc12` [LY294002, reference compound] returned a pAKT in series [1] of 0.055. The compound also displayed an AKT total in series [2] of 0.61. Moreover, the “phospho-GSK3 β” value in series [3] worked out at 0.042.

As for `CCCCCCCC(=O)CCCc1oc(=O)ccc1O[C@@H]1O[C@H](CO)[C@@H](O)[C@H](O)[C@H]1O` [MDN-0088], the pAKT in series [1] is 0.027. Also, the “weight loss or changes in behavior” value in series [4] (in vivo) is “no weight loss or changes in their behavior”. Further, the in vivo toxicity result in series [4] is on record as “absence of toxicity”. Further, the AKT total in series [2] stood at 0.58. In series [3], the “phospho-GSK3 β” value was 0.037. The “percentage of cells in each cell cycle phase: G0/G1” value in series [5] (MCF-7, 6.25 µM) is given as 48.17%; in series [5] (MCF-7, 12.5 µM) it was 53.49%; in series [5] (MCF-7, 25 µM), 56.9%; in series [5] (MCF-7, 50 µM) it was 62.79%. Also, the “percentage of cells in each cell cycle phase: G2/M” value in series [5] (MCF-7, 6.25 µM) turned out to be 17.71%; in series [5] (MCF-7, 12.5 µM) it was 15.76%; in series [5] (MCF-7, 25 µM), 14.38%; in series [5] (MCF-7, 50 µM) it was 10.99%. Besides, the “percentage of cells in each cell cycle phase: S” value in series [5] (MCF-7, 6.25 µM) is 6.09%; in series [5] (MCF-7, 12.5 µM), 5.64%; in series [5] (MCF-7, 25 µM), 3.49%; in series [5] (MCF-7, 50 µM), 2.37%. The “effect on cell cycle” value in series [5] (MCF-7, result in words) was “blocks the cell cycle in G0/G1 phase”.

The values are drawn from patent EP3292132B1, “PI3K INHIBITOR COMPOUNDS TO TREAT CANCER” (FUNDACIÓN MEDINA. Centro de Excelencia en Investigación de …, priority 2015, dated 2016).
